Measurements reported in US9295676B2, “Mutation mimicking compounds that bind to the kinase domain of EGFR” (The Trustees Of The University of Pennsylvania, priority 2011, dated 2016).

Tests used:
[1] = system: NCI-H1666 cells; test: Apoptosis by annexin V staining and FACS, wild-type EGFR cells; format: cell-based; settings: wild-type EGFR cell line, 1 μM Tarceva® + 1 μM compound, 48 hrs
Method: Apoptosis was analyzed by FACS analysis after Annexin V staining and propidium iodide staining of DNA, and by Western blotting tracking caspase cascade activation. […] The cell lysates were subjected to Western blotting with anti-caspase-8, anti-caspase-3, anti-caspase-9 and anti-PARP antibodies to detect cleavage. NCI-H1650 and H3255 cells expressing mutant EGFR were used as a positive control in the apoptosis studies.

[2] = biological target: T1, wild type human EGFR (Homo sapiens, UniProt P00533); test: Western blot of EGFR phosphorylation in NE91 cells (FIG. 6A); format: cell-based
T1 construct: expressed in transfected cells; host or cells: NE91 (mouse fibroblasts)
Method: (§1) Total EGFR levels were measured as a control.
Studies measuring total EGFR phosphorylation and phosphorylation of different tyrosines, cell lines NE91, NCI-H1666 and A549 expressing wild type EGFR were treated with the target compounds for 3 hours followed by either induction with 50 ng/ml EGF for 15 min or no EGF induction. The cell lysates were subjected to the immunoprecipitation with anti-EGFR antibodies followed by Western blotting with anti-pY99 (total phospho-tyrosine), anti-pY845, anti-pY1045, anti-pY 1068 and/or anti-pY1173 antibodies.

[3] = biological target: T2, L858R EGFR (Homo sapiens, UniProt P00533, L858R); test: Western blot of EGFR phosphorylation in mouse fibroblasts expressing L858R EGFR (FIG. 6B); format: cell-based
T2 construct: expressed in transfected cells; host or cells: mouse fibroblasts
Method: as §1
That is, while the binding affinity of the compounds tested in non-mutated EGFR defined by the cavity described above (and when Leu is present in the 858 position), when the single mutation is introduced such that Leu-858 is replaced by Arg-858—the binding affinity drops dramatically. […] Accordingly, MMCs may be characterized as having a higher binding constant (lower dissociation constant) for non-mutated vs. L858R mutated EGFR.

[4] = system: NE91 cells; test: Anchorage independent growth, soft agar colony formation; format: cell-based, mouse
Method: Studies on the effects of the target compounds on anchorage-independent growth of tumor cells used four different cell lines, A549, Calu-3, NE91 and T6-17, which have different levels of EGFR molecules on the cell surface. […] Cells were analyzed for their effects on anchorage-independent growth using soft agar assays described previously in Qian, et al., “Inhibition of p185neu kinase activity and cellular transformation of co-expression of a truncated neu protein,” Oncogene, 13: 2149-2157 (1996). The cells were plated in triplicate in 0.4% agar-HBBS and allowed to grow for 2 to 3 weeks. The cells will be fed with 0.5 ml media containing compounds on the day after plating and once a week thereafter. The colonies were stained with the HBSS solution containing 1 mg/ml of P-iodonitrotetrazolium violet (2-[4-iodophenyl]-3-[4-nitrophenyl]-5-phenyltetrazolium chloride). The number of the colonies formed were counted.

[5] = system: AsPC1 pancreatic tumors; test: In vivo tumor growth in mice with AsPC1 pancreatic tumors; settings: for effect on tumor growth, single agent: 15 mg/kg, FIG. 10
Source text: FIG. 10 graphically represents the results of in vivo testing of EEO3 (A) and EEO4 (B) in mice with AsPC1 tumors.

| SMILES | apoptotic activity of Tarceva® in the presence of the MMC [1] | receptor phosphorylation ([2]; compound alone, track 3) | Tarceva®-induced inhibition of EGFR phosphorylation ([2]; in combination with Tarceva®, track 4) | total EGFR levels ([2]; in the presence of the compound) | activation of EGFR phosphorylation ([3]; cell line expressing mutant EGFR, compound alone, FIG. 6B lanes 1 and 2) | enhancement of Tarceva®-induced inhibition of EGFR phosphorylation ([3]; mutant cell line, FIG. 6B lanes 7 and 8) | inhibitory effect on cell growth in combination with Tarceva® ([4]; 0.25 μM, FIG. 8A) | anchorage independent cell growth, single agent ([4]; compound alone, 0.25 μM, FIG. 8A) | enhancement of the inhibitory effect of Tarceva® on colony formation ([4]; with a low concentration of Tarceva®, 1 nM, FIG. 8B) | effect on tumor growth, single agent [5] | antitumor effect of the combination with Tarceva® ([5]; Tarceva® with 15 mg/kg of EEO3, FIG. 10) | inhibitory effect on colony formation, single agent at low concentration ([4]; low concentration, 1 nM, FIG. 8B) |
| --- | --- | --- | --- | --- | --- | --- | --- | --- | --- | --- | --- | --- |
| Nc1ccccc1Sc1nc(-c2ccccc2N)ccc1[N+](=O)[O-] [EEN6A] | increased to the level observed with Tarceva® alone in the mutant cell line | – | – | – | – | – | – | – | – | – | – | – |
| CC1(C)Cc2cccc(C(=O)N3CCC(O)(c4ccc(Cl)cc4)CC3)c2O1 [EEO3] | – | enhancement of receptor phosphorylation | enhancement of Tarceva®-induced inhibition of EGFR phosphorylation | No changes in total EGFR levels | does not activate EGFR phosphorylation | does not enhance | enhanced the inhibitory effect on cell growth | stimulated cell growth | even more dramatic | weak antitumor effect similar to Tarceva® alone | significant synergistic antitumor effect | – |
| C#Cc1cccc(Nc2ncnc3cc(OCCOC)c(OCCOC)cc23)c1 [Tarceva®, erlotinib, reference compound] | – | – | – | – | – | – | – | – | – | only a modest effect on tumor growth | – | does not have any inhibitory effect by itself |
